Source: patent US7994185B2, “Benzene sulfonamide thiazole and oxazole compounds” (Glaxo Smith Kline LLC, priority 2008, dated 2011)
Counter-ions that a name gives are not always drawn. Like-named read-outs stand apart in the source and are kept apart here.

Tests used:
[1] = system: Human melanoma cancer cells (SK-MEL-28); test: Cell growth inhibition assay (CellTiter-Glo), SK-MEL-28; format: cell-based
[2] = system: Human colon tumor cells (Colo205); test: Cell growth inhibition assay (CellTiter-Glo), Colo205; format: cell-based
In short: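 Colo205 (and SK-MEL-28) cells in RPMI with 10% FBS were exposed to 10-point 1:3 serial dilutions of compound at 0.2% final DMSO for 3 days at 37 °C. Total ATP, a surrogate for cell number, was read by CellTiter-Glo luminescence, with % growth inhibition relative to DMSO-treated wells.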

[3] = biological target: T1, BRAFV600E full-length (amino acids 2-766) (Homo sapiens, UniProt P15056, V600E); test: B-Raf Accelerated MEK ATPase assay (BRAMA); format: biochemical; conditions: categorized
T1 construct: His6-tagged BRAFV600E full-length (amino acids 2-766); His6; made in house; host or cells: baculovirus expression system (insect cells)
T1 sequence (P15056 2-766 V600E): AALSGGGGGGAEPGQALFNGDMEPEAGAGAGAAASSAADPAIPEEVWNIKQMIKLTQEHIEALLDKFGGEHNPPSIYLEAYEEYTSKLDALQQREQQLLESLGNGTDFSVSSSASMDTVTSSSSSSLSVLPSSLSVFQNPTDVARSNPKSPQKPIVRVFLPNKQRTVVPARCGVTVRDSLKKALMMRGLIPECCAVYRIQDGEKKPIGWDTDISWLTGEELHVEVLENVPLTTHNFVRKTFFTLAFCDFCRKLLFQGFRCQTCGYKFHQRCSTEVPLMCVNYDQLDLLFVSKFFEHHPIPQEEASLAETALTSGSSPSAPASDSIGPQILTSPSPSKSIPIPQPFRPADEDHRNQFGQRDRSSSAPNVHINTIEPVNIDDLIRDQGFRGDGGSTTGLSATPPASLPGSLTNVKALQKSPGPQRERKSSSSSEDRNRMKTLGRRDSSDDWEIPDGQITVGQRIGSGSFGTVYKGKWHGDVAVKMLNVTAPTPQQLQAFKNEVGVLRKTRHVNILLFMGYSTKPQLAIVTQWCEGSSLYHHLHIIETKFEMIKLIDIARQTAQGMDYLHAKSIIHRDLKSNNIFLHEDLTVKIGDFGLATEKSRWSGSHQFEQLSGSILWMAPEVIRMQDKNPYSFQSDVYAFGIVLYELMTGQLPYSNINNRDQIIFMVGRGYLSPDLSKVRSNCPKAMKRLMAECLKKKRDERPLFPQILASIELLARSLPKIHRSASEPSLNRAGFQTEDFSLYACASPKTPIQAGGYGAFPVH
In short: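 Coupled-enzyme readout: ADP generated by MEK-mediated ATP hydrolysis, uncoupled from ERK phosphorylation, is linked to NADH oxidation through pyruvate kinase and lactate dehydrogenase.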

[4] = SK-MEL-28, Table 3b, later runs, average for the one or more runs, categorized, read-out: IC50 for SK-MEL-28
[5] = COLO 205, Table 2b, later runs, average for the one or more runs, categorized, read-out: IC50 for Colo205
[6] = B-Raf pIC50, Table 1b, later runs, average pIC50 for the one or more runs
[7] = SK-MEL-28, 72 h, Table 3a, 3 days incubation, read-out: Activity in SK-MEL-28 Tumor Cells
[8] = COLO 205, 72 h, Table 2a, 3 days incubation, read-out: Activity in Colo205 Tumor Cells
[9] = B-Raf Activity, Table 1a, highest pIC50 for the one or more runs
[10] = Table 1b, later runs, average pIC50 for the one or more runs, read-out: B-Raf pIC50 (converted)

Row | SMILES | IC50 [1, 4] [nM] | IC50 [2, 5] [nM] | IC50 [3, 6] [nM] | IC50 [1, 7] [nM] | IC50 [2, 8] [nM] | IC50 [3, 9] [nM] | IC50 [3, 10] [nM]
1 | Cn1ccc(S(=O)(=O)Nc2cccc(-c3nc(C4CCOCC4)sc3-c3ccnc(N)n3)c2F)c1 [Example 285, N-{3-[5-(2-amino-4-pyrimidinyl)-2-(tetrahydro-2H-pyran-4-yl)-1,3-thiazol-4-yl]-2-fluorophenyl}-1-methyl-1H-pyrrole-3-sulfonamide hydrochloride] | 1000 to 10000 | 100 to 1000 | 31.6 to 1000 |  |  |  | 
2 | CC(C)c1nc(-c2ccc(F)c(NS(=O)(=O)c3cc(F)ccc3F)c2)c(-c2ccnc(NCCCN3CCCC3=O)n2)s1 [Example 184] | < 100 | < 100 |  | < 100 | < 100 | < 100 | 3.16 to 31.6
3 | CC(C)(C)c1nc(-c2cccc(NS(=O)(=O)c3c(F)cccc3F)c2F)c(-c2ccnc(NC3CCS(=O)(=O)CC3)n2)s1 [Example 13, N-[3-(2-(1,1-Dimethylethyl)-5-{2-[(1,1-dioxidotetrahydro-2H-thiopyran-4-yl)amino]-4-pyrimidinyl}-1,3-thiazol-4-yl)-2-fluorophenyl]-2,6-difluorobenzenesulfonamide] | < 100 | < 100 | ≤ 3.16 | < 100 | < 100 | < 100 | 
4 | CC(C)(C)c1nc(-c2cccc(NS(=O)(=O)c3c(F)cccc3F)c2Cl)c(-c2ccnc(N)n2)s1 [Example 236, N-{3-[5-(2-amino-4-pyrimidinyl)-2-(1,1-dimethylethyl)-1,3-thiazol-4-yl]-2-chlorophenyl}-2,6-difluorobenzenesulfonamide] | < 100 | < 100 | ≤ 3.16 |  |  |  | 
5 | CC(C)(C)c1nc(-c2c(F)ccc(NS(=O)(=O)c3cc(F)ccc3F)c2F)c(-c2ccnc(N)n2)s1 [Example 258, N-{3-[5-(2-amino-4-pyrimidinyl)-2-(1,1-dimethylethyl)-1,3-thiazol-4-yl]-2,4-difluorophenyl}-2,5-difluorobenzenesulfonamide] | < 100 | < 100 | ≤ 3.16 |  |  |  | 
6 | CC(C)c1nc(-c2cccc(NS(=O)(=O)c3nccs3)c2F)c(-c2ccnc(NC3CCN(S(C)(=O)=O)CC3)n2)s1 [Example 40, N-{2-Fluoro-3-[2-(1-methylethyl)-5-(2-{[1-(methylsulfonyl)-4-piperidinyl]amino}-4-pyrimidinyl)-1,3-thiazol-4-yl]phenyl}-1,3-thiazole-2-sulfonamide] | 100 to 1000 | 100 to 1000 | ≤ 3.16 | 100 to 1000 | 100 to 1000 | < 100 | 
7 | CC(C)c1nc(-c2ccc(F)c(NS(=O)(=O)c3cn(C)cn3)c2)c(-c2ccnc(NCCCS(C)(=O)=O)n2)s1 [Example 36, N-{2-Fluoro-5-[2-(1-methylethyl)-5-(2-{[3-(methylsulfonyl)propyl]amino}-4-pyrimidinyl)-1,3-thiazol-4-yl]phenyl}-1-methyl-1H-imidazole-4-sulfonamide] |  |  | 31.6 to 1000 | > 1000 | > 1000 | 100 to 1000 | 
8 | CC(C)Nc1nccc(-c2sc(N3CCOCC3)nc2-c2cccc(NS(=O)(=O)c3cc(F)ccc3F)c2F)n1 [Example 83, 2,5-Difluoro-N-{2-fluoro-3-[5-{2-[(1-methylethyl)amino]-4-pyrimidinyl}-2-(4-morpholinyl)-1,3-thiazol-4-yl]phenyl}benzenesulfonamide] | < 100 | < 100 | ≤ 3.16 | < 100 | < 100 | < 100 | 
9 | CC(C)(C)c1nc(-c2cccc(NS(=O)(=O)c3cc(F)ccc3F)c2F)c(-c2ccnc(NC3CCN(S(C)(=O)=O)CC3)n2)s1 [Example 130] | < 100 | < 100 | ≤ 3.16 | < 100 | < 100 | < 100 | 
10 | Nc1nccc(-c2sc(N3CCOCC3)nc2-c2cccc(NS(=O)(=O)c3ccoc3)c2F)n1 [Example 267, N-{3-[5-(2-amino-4-pyrimidinyl)-2-(4-morpholinyl)-1,3-thiazol-4-yl]-2-fluorophenyl}-3-furansulfonamide] | 100 to 1000 | 100 to 1000 | ≤ 3.16 |  |  |  | 
11 | CC(C)CNc1nccc(-c2sc(C(C)C)nc2-c2ccc(F)c(NS(=O)(=O)c3cc(F)ccc3F)c2)n1 [Example 121] | 100 to 1000 | 100 to 1000 |  | 100 to 1000 | 100 to 1000 | < 100 | 3.16 to 31.6
12 | COc1ccc(F)cc1S(=O)(=O)Nc1cccc(-c2nc(C(C)C)sc2-c2ccnc(NC3CCN(S(C)(=O)=O)CC3)n2)c1 [Example 150] | 100 to 1000 | 100 to 1000 | 31.6 to 1000 | 100 to 1000 | 100 to 1000 | 100 to 1000 | 
13 | CC(C)(C)c1nc(-c2cccc(NS(=O)(=O)c3cc(F)ccc3F)c2F)c(-c2ccnc(NCCO)n2)s1 [Example 210] | < 100 | < 100 | ≤ 3.16 | < 100 | < 100 | < 100 | 
14 | CS(=O)(=O)N1CCC(Nc2nccc(-c3sc(C4CCC4)nc3-c3cccc(NS(=O)(=O)c4cc(F)ccc4F)c3F)n2)CC1 [Example 81, N-{3-[2-Cyclobutyl-5-(2-{[1-(methylsulfonyl)-4-piperidinyl]amino}-4-pyrimidinyl)-1,3-thiazol-4-yl]-2-fluorophenyl}-2,5-difluorobenzenesulfonamide] | < 100 | < 100 | ≤ 3.16 | < 100 | < 100 | < 100 | 
15 | CC(C)c1nc(-c2cccc(NS(=O)(=O)c3cc(F)ccc3F)c2F)c(-c2ccnc(NCCNC(=O)CO)n2)s1 [Example 192] | < 100 | 100 to 1000 | ≤ 3.16 | 100 to 1000 | 100 to 1000 | < 100 | 
16 | Cc1nccc(-c2sc(N3CCOCC3)nc2-c2cccc(NS(=O)(=O)c3ccoc3)c2F)n1 [Example 272, N-{2-fluoro-3-[5-(2-methyl-4-pyrimidinyl)-2-(4-morpholinyl)-1,3-thiazol-4-yl]phenyl}-3-furansulfonamide] | < 100 | 100 to 1000 |  |  |  |  | 3.16 to 31.6
17 | CC(C)(C)c1nc(-c2cccc(NS(=O)(=O)c3cc(F)ccc3F)c2F)c(-c2ccnc(NCC(F)F)n2)s1 [Example 177] | 1000 to 10000 | 1000 to 10000 | ≤ 3.16 | < 100 | < 100 | < 100 | 
18 | CC(C)c1nc(-c2ccc(F)c(NS(=O)(=O)c3c(F)cccc3F)c2)c(-c2ccnc(NCCC(F)(F)F)n2)s1 [Example 180] | 100 to 1000 | 100 to 1000 |  | 100 to 1000 | 100 to 1000 | < 100 | 3.16 to 31.6
19 | CC(C)c1nc(-c2ccc(F)c(NS(=O)(=O)c3ccccc3F)c2)c(-c2ccnc(N[C@H]3CC[C@H](NS(C)(=O)=O)CC3)n2)s1 [Example 140] | < 100 | < 100 |  | < 100 | < 100 | < 100 | 3.16 to 31.6
20 | Nc1nccc(-c2sc(N3CCS(=O)(=O)CC3)nc2-c2cccc(NS(=O)(=O)c3c(F)cccc3F)c2F)n1 [Example 102, N-{3-[5-(2-Amino-4-pyrimidinyl)-2-(1,1-dioxido-4-thiomorpholinyl)-1,3-thiazol-4-yl]-2-fluorophenyl}-2,6-difluorobenzenesulfonamide] | 100 to 1000 | 100 to 1000 |  | 100 to 1000 | 100 to 1000 | < 100 | 3.16 to 31.6
21 | CC(C)(C)c1nc(-c2cccc(NS(=O)(=O)c3ccccc3F)c2F)c(-c2ccnc(N)n2)s1 [Example 54, N-{3-[5-(2-Amino-4-pyrimidinyl)-2-(1,1-dimethylethyl)-1,3-thiazol-4-yl]-2-fluorophenyl}-2-fluorobenzenesulfonamide] | < 100 | < 100 | ≤ 3.16 | < 100 | < 100 | < 100 | 
